Results on one compound are retold here after paper PMC4301629 (PLoS ONE, 2015).

In general, Ki refers to a measure of affinity in units of concentration, obtained from inhibition or displacement. For orientation: EC50 means the concentration needed to bring the measured effect to its halfway point.

The subject of one assay is HEK293/EBNA cells. Briefly: IP accumulation (IP-One HTRF) in untransduced HEK-293/EBNA cells. It counts as cell-based.
The target of assay [1] is T1, β2-AR (Homo sapiens, UniProt P07550).
T1 construct: HEK-293/EBNA cells are known to express β2-AR endogenously; endogenous in cells; host or cells: HEK-293/EBNA (untransduced or negative-control transduced)
T1 sequence (P07550 whole entry): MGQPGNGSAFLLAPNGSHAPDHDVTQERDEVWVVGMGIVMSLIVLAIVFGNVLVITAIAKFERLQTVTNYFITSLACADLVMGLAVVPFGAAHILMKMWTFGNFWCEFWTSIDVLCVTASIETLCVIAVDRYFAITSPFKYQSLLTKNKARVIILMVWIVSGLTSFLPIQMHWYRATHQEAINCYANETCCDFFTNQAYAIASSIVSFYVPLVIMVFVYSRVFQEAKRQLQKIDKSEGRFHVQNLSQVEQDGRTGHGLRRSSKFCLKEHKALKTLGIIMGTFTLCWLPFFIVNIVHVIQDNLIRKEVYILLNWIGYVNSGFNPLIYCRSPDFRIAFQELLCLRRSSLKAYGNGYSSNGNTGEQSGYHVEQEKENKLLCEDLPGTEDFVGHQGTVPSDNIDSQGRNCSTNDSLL
The experiment in a line: cAMP accumulation in untransduced HEK-293/EBNA cells. It is filed as cell-based. To be noted: HEK293/EBNA.

The target of assay [2] is T1, β2-AR. The experiment in a line: MAPK activation (AlphaScreen SureFire p-ERK) in untransduced HEK-293/EBNA cells. It counts as cell-based. Particulars: HEK293/EBNA. A general note: In Alpha technology, singlet oxygen from a donor bead excites a nearby acceptor bead.
The target in assay [3] is T1, β2-AR. Particulars: HEK293/EBNA; [125I-CYP] used as radioligand (footnote 1a); cited from earlier work.
Assay [4] has as its target T1, β2-AR. To be noted: HEK293/EBNA; read-out: EC50 Ca2+; cited from earlier work.
Assay [5] addresses T2, α1A-AR (Homo sapiens, UniProt P35348).
T2 sequence (P35348 1-466): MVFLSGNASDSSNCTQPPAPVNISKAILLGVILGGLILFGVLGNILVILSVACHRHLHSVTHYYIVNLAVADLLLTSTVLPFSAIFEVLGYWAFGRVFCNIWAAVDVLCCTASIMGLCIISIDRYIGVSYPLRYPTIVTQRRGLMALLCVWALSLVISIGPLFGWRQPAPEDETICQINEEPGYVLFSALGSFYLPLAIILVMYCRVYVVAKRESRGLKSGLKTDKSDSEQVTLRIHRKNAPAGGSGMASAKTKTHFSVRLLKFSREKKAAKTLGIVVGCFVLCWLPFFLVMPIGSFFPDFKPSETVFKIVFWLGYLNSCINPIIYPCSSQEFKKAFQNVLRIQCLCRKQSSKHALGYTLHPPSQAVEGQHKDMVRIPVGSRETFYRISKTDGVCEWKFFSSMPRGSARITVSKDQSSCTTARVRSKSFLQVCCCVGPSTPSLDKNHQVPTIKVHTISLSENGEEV
The experiment in a line: LC-MS detection of IP1, IP2 and IP3 in α1A-AR_CHO stable cells. It is filed as cell-based. More on the design: expressed in transfected cells. Particulars: α1A-AR CHO, Iso up to 1 mM. On the procedure: (§1) After that, the medium was replaced with agonist solution in assay buffer (20 mM HEPES, 10 mM glucose, 1.8 mM CaCl2, 0.5 mM MgSO4, in HBSS 1X buffer, 50 mM LiCl) and cells were incubated at 37°C for 30 min. Stimulation was stopped by exchange of assay buffer with lysis buffer (100 μL 0.1N HCl/MeOH), and lysis proceeded for 30 min at 4°C. Cellular levels of inositol phosphates were determined using a Thermo LC-MS detection system following a published protocol. Chromatography was performed employing a BioBasic column AX (50 × 2.1 mm, Thermo). The mobile phase consisted of solvent A: 10 mM ammonium acetate, pH 6 in 30/70 acetonitrile/water, and solvent B: 1 mM ammonium acetate, pH 11 in 30/70 acetonitrile/water. A gradient solvent system was used starting with 0% solvent B, and analytes were eluted by increasing solvent B to 100% over 3 min. Each data point represents the average of triplicate determinations and each experiment was performed at least three times independently.
IP1, IP2, and IP3 levels were determined via LC-MS. Plots are representative of three independent experiments with each data point being the average of triplicates.

Assay [6] concerns the target T2, α1A-AR. The experiment in a line: MAPK activation (AlphaScreen SureFire p-ERK) in α1A-AR transduced HEK-293/EBNA cells. It counts as cell-based. Also on record: expressed in transfected cells; host or cells: HEK-293/EBNA (baculovirus transduction, NaBu induction). To be noted: α1A-AR transduced HEK-293/EBNA. The procedure:
Prior to experiments, cells were transduced with baculovirus strains designed for transient expression of α1A-AR or aldehyde oxidase (negative control). This was performed by incubating cells with virus (MOI 100–150) for 3 to 4 h, followed by exchange into fresh serum free growth medium supplemented with 4 mM sodium butyrate (NaBu). Cells were grown for another 14 to 18 h and then examined for agonist-evoked responses in transient Ca^2+ release, IP accumulation or pERK activation assays. The surface receptor expression density was determined by flow cytometry via immunofluorescence labeling of an N-terminal HA epitope tag on the receptor and radioligand binding in partially purified membranes.
Graphs shown reflect either pooled or representative data (see figure legends). For concentration-response analysis, results from Ca^2+ mobilization experiments were plotted as ΔF/F0 vs. agonist concentration and fit to a sigmoidal concentration-response equation using the GraphPad Prism software package. […] For radioligand binding experiments, B max values were calculated from maximum binding using the equation B max = (SB × ([…] + [L])/[L]), where SB is the specific binding expressed as fmol per mg of membrane protein, and [L] is the ligand concentration.

Assay [7] has as its target T2, α1A-AR. Briefly: LC-MS detection of IP1, IP2 and IP3 in α1A-AR transduced HEK-293/EBNA cells. It is filed as cell-based. Also on record: expressed in transfected cells; host or cells: HEK-293/EBNA (baculovirus transduction, NaBu induction). To be noted: Iso up to 10 mM. On the procedure: as §1, with “Virally transduced HEK-293/EBNA cells were resuspended in growth medium and seeded in poly-D-lysine coated 96-well black plates at a density of 100,000 cells/0.1 mL per well, Cells were allowed to attach for 2 hours at 37°C in a humidified atmosphere of 95% air and 5% CO2. After” for “After”

Assay [8] has as its target T2, α1A-AR. The experiment in a line: Translocation of GFP-tagged β-arrestin-1/2 in HEK293 cells expressing FLAG-α1A-AR (confocal microscopy). It is filed as cell-based. Also on record: expressed in transfected cells; host or cells: HEK-293/EBNA (baculovirus transduction, NaBu induction). To be noted: HEK293, 1 μM A-61603 or 1 mM Iso. The procedure: HEK293 cells were transiently co-transfected with FLAG-tagged α1A – AR and one of the following GFP-tagged proteins: Rab5 (Rab5 Q79L) variant, Rab11 (Rab11 S25N) variant, β-arrestin-1 or β-arrestin-2. Rab5 and Rab11 were kindly provided by Dr. Marino Zerial (Max Planck Institute of Molecular Cell Biology and Genetics, Dresden, Germany). […] After treatment, cells were fixed with freshly prepared 3.7% paraformaldehyde in PBS for 15 min at room temperature. Subsequently, cells were permeabilized with 0.1% Triton X-100 (Sigma-Aldrich) in PBS for 5 min, followed by nonspecific binding site blocking with 3% normal serum (Santa Cruz Biotechnology) in PBS for 1 h. Incubation with Alexa Fluor-568 conjugated anti-FLAG antibodies in blocking solution was done as directed by the manufacturer. Confocal microscopy was performed using a Zeiss LSM 510 META laser scanning microscope (Carl Zeiss, Inc., Thornwood, NY) equipped with a 60X objective, using the following laser wavelengths: excitation at 488 nm and emission at 505–530 nm; excitation at 543 nm and emission at 560–615 nm.
HEK293 cells were co-transfected with FLAG-tagged α1A – AR and GFP- tagged β-arrestin-1 (left panels) or β-arrestin-2 (right panels). […] Cells were then fixed, permeabilized, stained with Alexa Fluor-568 conjugated anti-FLAG antibodies, and analyzed employing confocal microscopy.

On to `CS(=O)(=O)Nc1c(O)ccc2c1CCCC2C1=NCCN1` (stereo not shown) [A-61603], for which the “EC50 IP” value in the assay on HEK293/EBNA cells (HEK293/EBNA untransduced) is on record as “BQL”. Further, the IP formation entry in the assay on HEK293/EBNA cells (untransduced cells, data not shown) is on record as “not detectable”. Also, the “EC50 cAMP” value on β2-AR [1] was “BQL”. Also, the “EC50 p-ERK” value on β2-AR [2] is reported as “BQL”. On β2-AR [3], the Ki was 24 µM. Besides, at β2-AR [4], the EC50 is 0.003 µM. Also, on α1A-AR [5], the “cellular concentration of inositol phosphates IP1, IP2 and IP3” value was “concentration-dependent increases”. Further, the “times more potent at inducing p-ERK formation than Ca2+ mobilization” value at α1A-AR [6] is roughly 4 times. Further, the “cellular levels of inositol phosphates IP1, IP2 and IP3” value at α1A-AR [7] is “concentration-dependent increases”. At α1A-AR [8], the “translocation of β-arrestin-1 / β-arrestin-2” value is “did not induce significant translocation”.
